What was measured:
IgM = assay: Serum IgM in anti-IgD stimulated mice (two site sandwich ELISA, Assay E); assay type: in vivo, mouse (Balb/c female); settings: 20 μg days 3 and 4; for inhibition of IgM: Example 25; for IgM ± SD: Table 14, day 8 (control 4147)
Method: (§1) Sera from mice treated with compounds in accordance with the method of the invention are analyzed for levels of IgG1, IgG2a, IgG3, and IgM.
Measurement of mouse IgM by a two site sandwich ELISA is performed in substantial accordance with the teachings of Assay B except for the following changes. About 250 ng of rabbit anti-mouse IgM (Zymed Laboratories) is used to coat a NuncImmulon 96 well plate. The IgM standard is purchased from Southern Biotech. The standard curve is linear between 8-500 ng/ml. Serum containing IgM is diluted 1/4,000 to 1/60,000. About a 1/10,000 dilution of goat anti mouse IgM conjugated to horse radish peroxidase is used as a combined primary antibody and developing reagent. 100 μl is added to each well and the plate is incubated at about 4° C. overnight. The colorimetric substrate is prepared and used as described in Assay A.
Two groups of 4 Balb/c female mice per group are injected with both 100 μg FF1-4D5 antibody and 100 μg H∂Al antibody. On day 3 and 4 the mice are injected with PBS (Group A) or 20 μg (±) methyl 11α,16-dihydroxy-16-ethyl-9-oxoprosta-5Z,13E-dien-1-oate (Group B) at 7 a.m., 1 p.m. and 7 p.m. in substantial accordance with the teaching of Example 13. On day -1, 7, 8, 9 and 11, 50-100 μl of serum is recovered and analyzed for IgE by Assay A and for IgM by Assay E. The results are shown in Table 6.
(§2) Three groups of 5 Balb/c female mice per group are injected with both 100 μg FF1-4D5 antibody and 100 μg H∂A1 antibody on day 0. Group A is a control with no further treatment. On day 3 and 4, the mice are injected with 20 μg (±) methyl 11α,16-dihydroxy-4,4,16-trimethyl-9-oxoprosta-13E-en-1-oate (Group B) or 20 μg (±) methyl 11α,16-dihydroxy-16-methyl-9-oxoprosta-3,5Z,13E-trien-1-oate (Group C) as in Example 13. On day -1 and 8, […] of serum is recovered and analyzed for IgE, IgG1, IgG2a, IgG3 and IgM by Assays A, B, C, D and E, respectively.

IgG2a = assay: Serum IgG2a in anti-IgD stimulated mice (two site sandwich ELISA, Assay C); assay type: in vivo, mouse (Balb/c female); settings: for IgG2a ±: Table 12, day 8 (control 849)
Method: as §1
Measurement of mouse IgG2a by a two site sandwich ELISA is performed in substantial accordance with the teaching of Assay B except with the following changes. NuncImmulon II plates are used in this assay. The IgG2a standard is purchased from Southern Biotech. The standard curve is linear between 4-250 ng/ml. Serum containing IgG2a is diluted 1/6400 to 1/1,000,000. About a 1/6,000 dilution of goat anti mouse IgG2a (Southern Biotech) conjugated to alkaline phosphatase is used.
Sera from the mice described in Example 13 are analyzed for the levels of IgG1, IgG2a, and IgG3 by Assays B, C, and D, respectively.
Two groups of 4 Balb/c female mice per group are injected with both 100 μg FF1-4D5 antibody and 100 μg H∂A1 antibody. One of these groups is a stimulated control designated Group B. On day 3 and 4, the other group is injected with 40 μg (±) methyl 11α, 16-dihydroxy-1-methyl-9-oxoprosta-4Z,13E-dien-1-oate. Another group is injected with only PBS as an unstimulated control (Group A). On day -1 and 8, 50-100 μl of serum is recovered and analyzed for IgE, IgG1 and IgG2a by Assays A, B, and C, respectively.
3 groups of 4 Balb/c female mice per group are injected with both 100 μg FF1-4D5 antibody and 100 μg H∂A1 antibody on day 0. Group A is given no further treatment. On day 3 and 4, one group of mice is injected with 20 μg (±) methyl 2-[2-[3R-3α-hydroxy-2β-(4-hydroxy-4-methyl-1E-octenyl-5-oxo-1α-cyclopentyl]-methyl]cyclopropanebutanoate (Group B) and another group with 20 μg (±) methyl 2-[2-[3R-3α-hydroxy-2β-(4-hydroxy-4-methyl-1E-octenyl)-5-oxo-1α-cyclopentyl]ethyl]cyclopropanepropanoate (Group C) as in Example 13. On day -1 and 8, 50-100 μl of serum is recovered and analyzed for IgE, IgG1, IgG2a and IgG3 by Assays A, B, C and D, respectively. The selectivity of inhibition of IgE is shown in Table 12.
as §2

[1] = Diarrheal effects in rats; settings: rat, in vivo, po
Method: Briefly, adult Charles River male rats weighing 210-230 g were individually housed and fasted with water available ad libitum for 24 hours prior to the test. The animals (N=6-12) received logarithmically graded prostaglandin doses orally. Immediately after administration, the animals were returned to their cages, and diarrhea, if any, was assessed on an all or none basis for 8 hours after drug treatment. The ED50 and relative potency values were calculated by the logistic method of Berkson.

IgG3 = assay: Serum IgG3 in anti-IgD stimulated mice (two site sandwich ELISA, Assay D); assay type: in vivo, mouse (Balb/c female)
[2] = Table 14, 20 μg days 3 and 4, day 8 (control 1246)
[3] = Table 14, 20 μg days 3 and 4, day 8 (control 1538)
[4] = 2 μg IP days 3 and 4, day -1 baseline before treatment
[5] = 5 μg IP days 3 and 4, day -1 baseline before treatment
[6] = 10 μg IP days 3 and 4, day -1 baseline before treatment
[7] = 20 μg IP days 3 and 4, day -1 baseline before treatment
[8] = 40 μg IP days 3 and 4, day -1 baseline before treatment
[9] = Table 12, 20 μg days 3 and 4, day 8 (control 584)

## CCCCC(C)(O)C/C=C/[C@H]1[C@H](O)CC(=O)[C@@H]1C/C=C\C=CCC(=O)OC (relative stereo) [(±) methyl 11α,16-dihydroxy-16-methyl-9-oxoprosta-3,5Z,13-trien-1-oate]
IgM
  inhibition of IgM: not IgG1, IgG2a, IgG3 and IgM
  IgM ± SD: 7708 µg/mL
IgG2a; 20 μg days 3 and 4, Example 25
  inhibition of IgG2a: not IgG1, IgG2a, IgG3 and IgM
IgG2a; [2]
  IgG2a ± SD: 1202 ± 338 µg/mL
[1]
  TD50 at 8 h: 0.57 mg/kg
IgG3; 20 μg days 3 and 4, Example 25
  inhibition of IgG3: not IgG1, IgG2a, IgG3 and IgM
IgG3; [3]
  IgG3 ± SD: 1709 ± 429 µg/mL

## CCCCC(C)(O)C/C=C/[C@H]1[C@H](O)CC(=O)[C@@H]1C/C=C\CCCC(=O)OC (mixture of isomers) [(±) methyl 11α,16-dihydroxy-16-methyl-9-oxoprosta-5Z,13E-dien-1-oate]
IgG2a; 2 μg IP days 3 and 4, day 7 (control 139)
  IgG2a ± SD: 114 ± 61 µg/mL
IgG2a; 2 μg IP days 3 and 4, day 8 (control 554)
  IgG2a ± SD: 277 ± 111 µg/mL
IgG2a; 2 μg IP days 3 and 4, day 9 (control 923)
  IgG2a ± SD: 1053 ± 256 µg/mL
IgG2a; 2 μg IP days 3 and 4, day 11 (control 951)
  IgG2a ± SD: 1124 ± 219 µg/mL
IgG2a; [4]
  IgG2a ± SD: 25 ± 25 µg/mL
IgG2a; 5 μg IP days 3 and 4, day 7
  IgG2a ± SD: 133 ± 67 µg/mL
IgG2a; 5 μg IP days 3 and 4, day 8
  IgG2a ± SD: 481 ± 192 µg/mL
IgG2a; 5 μg IP days 3 and 4, day 9
  IgG2a ± SD: 1093 ± 245 µg/mL
IgG2a; 5 μg IP days 3 and 4, day 11
  IgG2a ± SD: 1540 ± 201 µg/mL
IgG2a; [5]
  IgG2a ± SD: 58 ± 66 µg/mL
IgG2a; 10 μg IP days 3 and 4, day 7
  IgG2a ± SD: 107 ± 45 µg/mL
IgG2a; 10 μg IP days 3 and 4, day 8
  IgG2a ± SD: 276 ± 168 µg/mL
IgG2a; 10 μg IP days 3 and 4, day 9
  IgG2a ± SD: 855 ± 117 µg/mL
IgG2a; 10 μg IP days 3 and 4, day 11
  IgG2a ± SD: 1097 ± 289 µg/mL
IgG2a; [6]
  IgG2a ± SD: 26 ± 7 µg/mL
IgG2a; 20 μg IP days 3 and 4, day 7
  IgG2a ± SD: 182 ± 105 µg/mL
IgG2a; 20 μg IP days 3 and 4, day 8
  IgG2a ± SD: 493 ± 187 µg/mL
IgG2a; 20 μg IP days 3 and 4, day 9
  IgG2a ± SD: 1170 ± 285 µg/mL
IgG2a; 20 μg IP days 3 and 4, day 11
  IgG2a ± SD: 2133 ± 862 µg/mL
IgG2a; [7]
  IgG2a ± SD: 29 ± 9 µg/mL
IgG2a; 40 μg IP days 3 and 4, day 7
  IgG2a ± SD: 81 ± 12 µg/mL
IgG2a; 40 μg IP days 3 and 4, day 8
  IgG2a ± SD: 433 ± 314 µg/mL
IgG2a; 40 μg IP days 3 and 4, day 9
  IgG2a ± SD: 1177 ± 383 µg/mL
IgG2a; 40 μg IP days 3 and 4, day 11
  IgG2a ± SD: 1667 ± 675 µg/mL
IgG2a; [8]
  IgG2a ± SD: 23 ± 1 µg/mL
[1]
  TD50 at 8 h: 0.173 mg/kg
IgG3; 2 μg IP days 3 and 4, day 7 (control 227)
  IgG3 ± SD: 370 ± 229 µg/mL
IgG3; 2 μg IP days 3 and 4, day 8 (control 519)
  IgG3 ± SD: 882 ± 310 µg/mL
IgG3; 2 μg IP days 3 and 4, day 9 (control 510)
  IgG3 ± SD: 741 ± 475 µg/mL
IgG3; 2 μg IP days 3 and 4, day 11 (control 465)
  IgG3 ± SD: 687 ± 152 µg/mL
IgG3; [4]
  IgG3 ± SD: 70 ± 10 µg/mL
IgG3; 5 μg IP days 3 and 4, day 7
  IgG3 ± SD: 464 ± 161 µg/mL
IgG3; 5 μg IP days 3 and 4, day 8
  IgG3 ± SD: 640 ± 46 µg/mL
IgG3; 5 μg IP days 3 and 4, day 9
  IgG3 ± SD: 649 ± 232 µg/mL
IgG3; 5 μg IP days 3 and 4, day 11
  IgG3 ± SD: 559 ± 162 µg/mL
IgG3; [5]
  IgG3 ± SD: 109 ± 44 µg/mL
IgG3; 10 μg IP days 3 and 4, day 7
  IgG3 ± SD: 494 ± 267 µg/mL
IgG3; 10 μg IP days 3 and 4, day 8
  IgG3 ± SD: 789 ± 264 µg/mL
IgG3; 10 μg IP days 3 and 4, day 9
  IgG3 ± SD: 760 ± 340 µg/mL
IgG3; 10 μg IP days 3 and 4, day 11
  IgG3 ± SD: 802 ± 216 µg/mL
IgG3; [6]
  IgG3 ± SD: 68 ± 2 µg/mL
IgG3; 20 μg IP days 3 and 4, day 7
  IgG3 ± SD: 446 ± 266 µg/mL
IgG3; 20 μg IP days 3 and 4, day 8
  IgG3 ± SD: 1075 ± 453 µg/mL
IgG3; 20 μg IP days 3 and 4, day 9
  IgG3 ± SD: 1636 ± 275 µg/mL
IgG3; 20 μg IP days 3 and 4, day 11
  IgG3 ± SD: 1288 ± 156 µg/mL
IgG3; [7]
  IgG3 ± SD: 77 ± 10 µg/mL
IgG3; 40 μg IP days 3 and 4, day 7
  IgG3 ± SD: 236 ± 84 µg/mL
IgG3; 40 μg IP days 3 and 4, day 8
  IgG3 ± SD: 639 ± 104 µg/mL
IgG3; 40 μg IP days 3 and 4, day 9
  IgG3 ± SD: 1048 ± 167 µg/mL
IgG3; 40 μg IP days 3 and 4, day 11
  IgG3 ± SD: 1044 ± 115 µg/mL
IgG3; [8]
  IgG3 ± SD: 68 ± 6.5 µg/mL

## CCCCC(C)(O)C/C=C/[C@H]1[C@H](O)CC(=O)[C@@H]1CCC1CC1CCC(=O)OC (relative stereo) [(±) methyl 2-[2-[3R-3α-hydroxy-2β-(4-hydroxy-4-methyl-1E-octenyl)-5-oxo-1α-cyclopentyl]ethyl]cyclopropanepropanoate]
IgG2a; 20 μg days 3 and 4, Example 23
  inhibition of IgG2a: not IgG1, IgG2a or IgG3
IgG2a; 20 μg days 3 and 4
  IgG2a ±: 840 ± 484 µg/mL
IgG3; 20 μg days 3 and 4, Example 23
  inhibition of IgG3: not IgG1, IgG2a or IgG3
IgG3; [9]
  IgG3 ± SD: 901 ± 213 µg/mL

## CCCCC(C)(O)C/C=C/[C@H]1[C@H](O)CC(=O)[C@@H]1CCCC(C)(C)CCC(=O)OC (mixture of isomers) [(±) methyl 11α,16-dihydroxy-4,4,16-trimethyl-9-oxoprost-13E-en-1-oate]
IgM
  inhibition of IgM: not IgG1, IgG2a, IgG3 and IgM
  IgM ± SD: 9792 ± 984 µg/mL
IgG2a; 20 μg days 3 and 4, Example 25
  inhibition of IgG2a: not IgG1, IgG2a, IgG3 and IgM
IgG2a; [2]
  IgG2a ± SD: 1019 ± 278 µg/mL
[1]
  TD50 at 8 h: 0.185 mg/kg
IgG3; 20 μg days 3 and 4, Example 25
  inhibition of IgG3: not IgG1, IgG2a, IgG3 and IgM
IgG3; [3]
  IgG3 ± SD: 2103 ± 616 µg/mL

## CCCCC(C)(O)C/C=C/[C@H]1[C@H](O)CC(=O)[C@@H]1CC1CC1CCCC(=O)OC (relative stereo) [(±) methyl 2-[2-[3R-3α-hydroxy-2β-(4-hydroxy-4-methyl-1E-octenyl)-5-oxo-1α-cyclopentyl]methyl]cyclopropanebutanoate]
IgG2a; 20 μg days 3 and 4, Example 23
  inhibition of IgG2a: not IgG1, IgG2a or IgG3
IgG2a; 20 μg days 3 and 4
  IgG2a ±: 834 ± 235 µg/mL
IgG3; 20 μg days 3 and 4, Example 23
  inhibition of IgG3: not IgG1, IgG2a or IgG3
IgG3; [9]
  IgG3 ± SD: 520 ± 39 µg/mL

From patent publication US5157052A, “Method for inhibiting IgE production” (priority 1990, dated 1992)
